According to patent US12448400B2, “KRAS G12D modulating compounds” (priority 2023, dated 2025):
Where two headings read alike, the source gives them in different places.

What was measured:
[1] = system: GP2D (KRAS G12D) cells; assay: 2D cell viability assay (CellTiter-Glo); format: cell-based; conditions: 96 h
Protocol: Example B. 2D Cell Viability Assay
Compounds were tested in a 384-well format for their ability to inhibit the viability of GP2D (KRAS G12D) cells in 2D assays. Compounds were serially diluted (1:3) in DMSO. The LabCyte ECHO Acoustic dispenser system was used to pre-spot assay plates with 200 nL of test molecule per well. 1000 cells/well (40 μL volume per well) in RPMI medium with 10% FBS, and Penicillin-Streptomycin-Glutamine were plated in pre-spotted 384-well plates (Greiner, Catalog #781076) on the BioTEK EL406 liquid dispenser with a 5 μL dispensing cassette (BioTek 7170011). The plates were incubated at 37° C., 5% CO2 for 4 days before addition of CellTiter-Glo (CTG) reagent and measurement of luminescence signal. EC50 values were defined as the compound concentration that causes a 50% decrease in luminescence signal and were calculated using a sigmoidal dose-response model to generate curve fits.

[2] = target: GDP-loaded KRAS G12D (Homo sapiens, UniProt P01116, G12D); assay: KRAS G12D (GDP) biochemical assay, TR-FRET probe displacement; format: binding
Protocol: Example A. KRAS G12D (GDP) Biochemical Assay
Compounds were tested for binding to GDP-loaded KRAS G12D in a 384-well assay format using a TR-FRET probe displacement assay in buffer consisting of 50 mM Hepes (pH 7.4), 150 mM NaCl, 5 mM MgCl2 and 0.005% Tween-20. […] Compounds were serially diluted (1:3) in DMSO. The LabCyte ECHO Acoustic dispenser system was used to pre-spot the assay plates (384-well Non-Binding Surface plates, Corning, Catalog #3824) with 50 nL of compound. The compounds were pre-incubated with 5 μL of 2× final enzyme concentration for 30 minutes before adding 5 μL of 2× final concentration of Eu-streptavidin and TR-FRET probe (10 μL final reaction volume). The plates were incubated at room temperature for 2 hours before measuring TR-FRET ratio on the Envision plate reader. IC50 values were defined as the compound concentration that causes a 50% decrease in TR-FRET ratio and were calculated using a sigmoidal dose-response model to generate curve fits.

[3] = GP2D cells, 4 days, CellTiter-Glo luminescence, read-out: G12D 2D EC50
[4] = 0.5 nM enzyme, 30 min pre-incubation, 2 h incubation, TR-FRET ratio, read-out: G12D IC50

Chain of GDP-loaded KRAS G12D (P01116 1-188 isoform P01116-2 G12D): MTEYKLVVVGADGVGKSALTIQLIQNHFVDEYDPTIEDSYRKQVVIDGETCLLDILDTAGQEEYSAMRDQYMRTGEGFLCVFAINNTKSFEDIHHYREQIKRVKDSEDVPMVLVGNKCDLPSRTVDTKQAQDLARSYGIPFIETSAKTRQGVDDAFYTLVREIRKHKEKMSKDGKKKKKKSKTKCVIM

Row | Compound | EC50 [1, 3] [nM] | IC50 [2, 4] [nM] | EC50 ([1]; GP2d, read-out: G12D 2D EC50 (nM)) [nM] | IC50 [2] [nM]
1 | C#Cc1c(F)ccc2cc(OCc3oc(=O)oc3C)cc(-c3nc4c5c(nc(OC[C@@]67CCCN6C[C@H](F)C7)nc5c3F)N3C[C@H]5CC[C@@H]([C@@H]3[C@@H](C)C4)N5Cc3oc(=O)oc3C)c12 [Example 2, 4-(((5-ethynyl-6-fluoro-4-((5S,5aS,6S,9R)-1-fluoro-12-(((2R,7aS)-2-fluorotetrahydro-1H-pyrrolizin-7a(5H)-yl)methoxy)-5-methyl-14-((5-methyl-2-oxo-1,3-dioxol-4-yl)methyl)-4,5,5a,6,7,8,9,10-octahydro-3,10a,11,13,14-pentaaza-6,9-methanonaphtho[1,8-ab]heptalen-2-yl)naphthalen-2-yl)oxy)methyl)-5-methyl-1,3-dioxol-2-one] | 0.24 | 40 | – | –
2 | C#Cc1c(F)ccc2cccc(-c3nc4c5c(nc(OC[C@@]67CCCN6C[C@H](F)C7)nc5c3F)N3C[C@H]5CC[C@@H]([C@H]3CCC4)N5Cc3oc(=O)oc3-c3ccccc3)c12 [Example 4, 4-(((6aR,7S,10R)-2-(8-ethynyl-7-fluoronaphthalen-1-yl)-1-fluoro-13-(((2R,7aS)-2-fluorotetrahydro-1H-pyrrolizin-7a(5H)-yl)methoxy)-5,6,6a,7,8,9,10,11-octahydro-4H-3,11a,12,14,15-pentaaza-7,10-methanocyclohepta[4,5]cycloocta[1,2,3-de]naphthalen-15-yl)methyl)-5-phenyl-1,3-dioxol-2-one] | 2.3 | 3.3 | – | –
3 | C#Cc1c(F)ccc2cccc(-c3nc4c5c(nc(OC[C@@]67CCCN6C[C@H](F)C7)nc5c3F)N3C[C@H]5CC[C@@H]([C@H]3CCC4)N5Cc3c(C)oc(=O)n3C)c12 [Example 5, 4-(((6aR,7S,10R)-2-(8-ethynyl-7-fluoronaphthalen-1-yl)-1-fluoro-13-(((2R,7aS)-2-fluorotetrahydro-1H-pyrrolizin-7a(5H)-yl)methoxy)-5,6,6a,7,8,9,10,11-octahydro-4H-3,11a,12,14,15-pentaaza-7,10-methanocyclohepta[4,5]cycloocta[1,2,3-de]naphthalen-15-yl)methyl)-3,5-dimethyloxazol-2(3H)-one] | 78 | 4.7 | – | –
4 | C#Cc1c(F)ccc2cccc(-c3nc4c5c(nc(OC[C@@]67CCCN6C[C@H](F)C7)nc5c3F)N3C[C@H]5CC[C@@H]([C@H]3CCC4)N5Cc3oc(=O)oc3C(C)(C)C)c12 [Example 6, 4-(tert-butyl)-5-(((6aR,7S,10R)-2-(8-ethynyl-7-fluoronaphthalen-1-yl)-1-fluoro-13-(((2R,7aS)-2-fluorotetrahydro-1H-pyrrolizin-7a(5H)-yl)methoxy)-5,6,6a,7,8,9,10,11-octahydro-4H-3,11a,12,14,15-pentaaza-7,10-methanocyclohepta[4,5]cycloocta[1,2,3-de]naphthalen-15-yl)methyl)-1,3-dioxol-2-one] | 26 | 31 | – | –
5 | C#Cc1c(F)ccc2cc(O)cc(-c3nc4c5c(nc(OC[C@@]67CCCN6C[C@H](F)C7)nc5c3F)N3C[C@H]5CC[C@@H]([C@@H]3[C@@H](C)C4)N5Cc3oc(=O)oc3C)c12 [Example 7, 4-(((5S,5aS,6S,9R)-2-(8-ethynyl-7-fluoro-3-hydroxynaphthalen-1-yl)-1-fluoro-12-(((2R,7aS)-2-fluorotetrahydro-1H-pyrrolizin-7a(5H)-yl)methoxy)-5-methyl-4,5,5a,6,7,8,9,10-octahydro-3,10a,11,13,14-pentaaza-6,9-methanonaphtho[1,8-ab]heptalen-14-yl)methyl)-5-methyl-1,3-dioxol-2-one] | 0.18 | 2.8 | – | –
6 | Oc1cc(-c2nc3c4c(nc(OC[C@@]56CCCN5C[C@H](F)C6)nc4c2F)N2C[C@H]4CC[C@H](N4)[C@H]2CCC3)c2c(OC(F)(F)F)c(F)ccc2c1 [Example 18-P, 6-fluoro-4-((6aR,7S,10R)-1-fluoro-13-(((2R,7aS)-2-fluorotetrahydro-1H-pyrrolizin-7a(5H)-yl)methoxy)-5,6,6a,7,8,9,10,11-octahydro-4H-3,11a,12,14,15-pentaaza-7,10-methanocyclohepta[4,5]cycloocta[1,2,3-de]naphthalen-2-yl)-5-(trifluoromethoxy)naphthalen-2-ol] | 0.24 | 0.06 | – | –
7 | C#Cc1c(F)ccc2cc(O)cc(-c3c(F)c4c5c(nc(OC[C@@]67CCCN6C[C@H](F)C7)nc5c3F)N3C[C@H]5CC[C@H](N5)[C@H]3CC4)c12 [Example 37-P, 4-((1S,4R,11R,14aR)-10,12-difluoro-8-(((2R,7aS)-2-fluorotetrahydro-1H-pyrrolizin-7a(5H)-yl)methoxy)-1,2,3,4,5,13,14,14a-octahydro-1,4-epiminoazepino[1′,2′:1,7]azepino[2,3,4-de]quinazolin-11-yl)-5-ethynyl-6-fluoronaphthalen-2-ol] | 0.26 | 0.07 | – | –
8 | C#Cc1c(F)ccc2cc(O)cc(-c3nc4c5c(nc(OC[C@@]67CCCN6C[C@H](F)C7)nc5c3F)N3C[C@H]5CC[C@H](N5)[C@@H]3[C@H]3CCC[C@@H]43)c12 [Example 42-P, 5-ethynyl-6-fluoro-4-((3aS,3bS,4S,7R,14bR)-12-fluoro-10-(((2R,7aS)-2-fluorotetrahydro-1H-pyrrolizin-7a(5H)-yl)methoxy)-2,3,3a,3b,4,5,6,7,8,14b-decahydro-1H-8a,9,11,14,15-pentaaza-4,7-methanocyclopenta[d]naphtho[1,8-ab]heptalen-13-yl)naphthalen-2-ol] | 1.7 | 0.15 | – | –
9 | C#Cc1c(F)ccc2cc(OC(=O)N(C)C)cc(-c3nc4c5c(nc(OC[C@@]67CCCN6C[C@H](F)C7)nc5c3F)N3C[C@H]5CC[C@@H]([C@@H]3[C@@H](C)C4)N5Cc3oc(=O)oc3C)c12 [Example 51, 5-ethynyl-6-fluoro-4-((5S,5aS,6S,9R)-1-fluoro-12-(((2R,7aS)-2-fluorotetrahydro-1H-pyrrolizin-7a(5H)-yl)methoxy)-5-methyl-14-((5-methyl-2-oxo-1,3-dioxol-4-yl)methyl)-4,5,5a,6,7,8,9,10-octahydro-3,10a,11,13,14-pentaaza-6,9-methanonaphtho[1,8-ab]heptalen-2-yl)naphthalen-2-yl dimethylcarbamate] | – | – | 34 | > 100
10 | C#Cc1c(F)ccc2cc(O)cc(-c3nc4c5c(nc(OC[C@]6(C)CN(C)CC[C@@H]6C(F)F)nc5c3F)N3C[C@H]5CC[C@H](N5)[C@H]3CCC4)c12 [Example 74-P, 4-((6aR,7S,10R)-13-(((3S,4S)-4-(difluoromethyl)-1,3-dimethylpiperidin-3-yl)methoxy)-1-fluoro-5,6,6a,7,8,9,10,11-octahydro-4H-3,11a,12,14,15-pentaaza-7,10-methanocyclohepta[4,5]cycloocta[1,2,3-de]naphthalen-2-yl)-5-ethynyl-6-fluoronaphthalen-2-ol] | 0.15 | 0.03 | – | –
11 | [2H]C([2H])([2H])N1CC[C@H](C(F)F)[C@](C)(C([2H])([2H])Oc2nc3c4c(nc(-c5cc(O)cc6ccc(F)c(C#C)c56)c(F)c4n2)CCC[C@@H]2[C@@H]4CC[C@H](CN32)N4)C1 [Example 75-P, 4-((6aR,7S,10R)-13-(((3S,4S)-4-(difluoromethyl)-3-methyl-1-(methyl-d3)piperidin-3-yl)methoxy-d2)-1-fluoro-5,6,6a,7,8,9,10,11-octahydro-4H-3,11a,12,14,15-pentaaza-7,10-methanocyclohepta[4,5]cycloocta[1,2,3-de]naphthalen-2-yl)-5-ethynyl-6-fluoronaphthalen-2-ol] | 0.1 | 0.03 | – | –
12 | C#Cc1c(F)ccc2cc(N)cc(-c3nc4c5c(nc(OC[C@]6(C)CN(C)CC[C@@H]6C(F)F)nc5c3F)N3C[C@H]5CC[C@H](N5)[C@H]3CCC4)c12 [Example 76-P, 4-((6aR,7S,10R)-13-(((3S,4S)-4-(difluoromethyl)-1,3-dimethylpiperidin-3-yl)methoxy)-1-fluoro-5,6,6a,7,8,9,10,11-octahydro-4H-3,11a,12,14,15-pentaaza-7,10-methanocyclohepta[4,5]cycloocta[1,2,3-de]naphthalen-2-yl)-5-ethynyl-6-fluoronaphthalen-2-amine] | 0.27 | 0.07 | – | –
